A value given as a limit tells only on which side of the number the result lay.

The target of the assay is T1, Axl (Homo sapiens, UniProt P30530).
T1 construct: Cells: Hela cells; endogenous in cells; host or cells: HeLa cells
T1 sequence (P30530 26-894): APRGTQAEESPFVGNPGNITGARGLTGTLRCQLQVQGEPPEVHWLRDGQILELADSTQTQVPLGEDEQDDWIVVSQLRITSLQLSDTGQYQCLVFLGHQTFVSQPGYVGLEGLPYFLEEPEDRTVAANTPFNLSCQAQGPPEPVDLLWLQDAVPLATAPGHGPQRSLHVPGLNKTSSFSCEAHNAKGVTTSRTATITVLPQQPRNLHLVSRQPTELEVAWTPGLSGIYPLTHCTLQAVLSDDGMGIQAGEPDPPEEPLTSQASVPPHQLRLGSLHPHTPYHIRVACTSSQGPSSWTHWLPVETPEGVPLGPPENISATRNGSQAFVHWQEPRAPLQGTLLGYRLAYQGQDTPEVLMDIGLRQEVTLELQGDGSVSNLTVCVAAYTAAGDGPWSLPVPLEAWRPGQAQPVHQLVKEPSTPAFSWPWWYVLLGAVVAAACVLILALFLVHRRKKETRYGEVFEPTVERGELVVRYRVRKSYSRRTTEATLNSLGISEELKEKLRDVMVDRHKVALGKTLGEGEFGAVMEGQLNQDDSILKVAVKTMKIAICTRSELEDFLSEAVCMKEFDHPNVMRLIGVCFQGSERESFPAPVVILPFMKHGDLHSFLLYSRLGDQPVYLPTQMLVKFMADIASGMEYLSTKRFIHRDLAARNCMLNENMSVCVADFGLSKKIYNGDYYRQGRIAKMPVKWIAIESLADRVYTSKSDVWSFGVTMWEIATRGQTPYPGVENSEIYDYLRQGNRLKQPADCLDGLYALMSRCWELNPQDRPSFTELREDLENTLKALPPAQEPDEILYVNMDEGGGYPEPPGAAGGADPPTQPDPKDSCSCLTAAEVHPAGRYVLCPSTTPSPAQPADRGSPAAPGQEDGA
Nature of the assay: Phospho-Akt in-cell Western assay (inhibition of Axl activity). It counts as cell-based. The conditions noted are these: Hela cells; 1 hr pre-treatment; stimulation by Axl-antibody cross-linking; phospho-Akt chemiluminescence normalized to relative cell number. The protocol: The compounds of the invention were tested in the following assay for their ability to inhibit Axl activity.
Phospho-Akt in-Cell Western Assay
• Cell culture plate: 96 well assay plate (Corning 3610), white, clear bottom, tissue-culture treated. • Cells: Hela cells. • Starvation medium: For Axl stimulation: 0.5% FCS (fetal calf serum) in DMEM, plus Axl/Fc (extracellular domain of AXL fused to immunoglobulin Fc region) (R&D, 154-AL) 500 ng/mL. • For EGF (epidermal growth factor) stimulation: 0.5% FCS in DMEM (Dulbecco's modified Eagles medium). • Poly-L-Lysine 0.01% solution (the working solution): […], dilute In PBS (phosphate buffered saline). • Axl antibody cross-linking: • 1st: Mouse anti-Axl (R&D, MAB154). • 2nd: Biotin-SP-conjugated AffiniPure goat anti-mouse IgG (H+ L) (Jackson ImmunoResearch #115-065-003). • Fixing buffer: 4% formaldehyde in PBS. • Wash buffer: 0.1% TritonX-100 in PBS. • Quenching buffer: 3% H2O2, 0.1% Azide in wash buffer, Azide and hydrogen peroxide (H2O2) are added fresh. • Blocking buffer: 5% BSA in TBST (tris buffered saline plus 0.1% Tween 20). • Primary antibody: Rabbit anti-human Phospho-Akt antibody (Cell Signaling 9271): 1×250 diluted in blocking buffer. • Secondary antibody: HRP (horse radish peroxidase)-conjugated Goat anti-Rabbit secondary, stock solution: Jackson ImmunoResearch (Goat anti-Rabbit HRP, #111-035-144) 1:1 diluted in glycerol, store at −20° C. The working solution: 1×2000 dilution of stock in blocking buffer. • Chemiluminescent working solution (Pierce, 37030): SuperSignal ELISA (enzyme linked immunosorbant assay) Pico Chemiluminescent substrate. • Crystal Violet solution: Stock: 2.5% Crystal violet in methanol, filtered and kept at ambient temperature. The working solution: dilute the stock 1:20 with PBS immediately before use. • 10% SDS: working solution: 5% SDS (sodium dodecylsulfate), diluted in PBS Methods: Day 1:
A 96 well TC (tissue culture treated) plate was coated with 10 μg/mL poly-L-Lysine at 37° C. for 30 min, washed twice with PBS, and air-dried for 5 minutes before cells were added. Hela cells were seeded at 10,000 cells/well and the cells were starved in 100 μL starvation medium containing Axl/Fc for 24 hrs.
The cells were pre-treated with test compounds by adding 100 μL of 2× test compound to the starvation medium on the cells. The cells were incubated at 37° C. for 1 hr before stimulation.
The cells were stimulated by Axl-antibody cross-linking as follows: A 5× 1st/2nd Axl antibody mixture was made (37.5 μg/mL 1st/100 μg/mL 2nd) in starvation medium and nutated at 4° C. with thorough mixing for 1-2 hours for clustering. The resulting mix was warmed to 37° C. 50 μL of 5× Axl 1st/2nd of antibody cluster was added to the cells and the cells were incubated at 37° C. for 5 min.
After 5 minutes stimulation, the plate was flicked to remove medium and the plate was tapped onto paper towels. Formaldehyde (4.0% in PBS, 100 μL) was added to fix the cells and the cells were incubated at ambient temperature for 20 min without shaking.
The cells were washed with a plate washer buffer to remove the formaldehyde solution. The plate was flicked to removed excess wash buffer and tapped onto paper towels. Quenching buffer (100 μL) was added to each well and the cells were incubated at ambient temperature for 20 minutes without shaking.
The cells were washed with a plate washer buffer to remove the quenching buffer. Blocking buffer (100 μL) was added and the cells were incubated at ambient temperature for at least an hour with gentle shaking.
The cells were washed with a plate washer buffer and diluted primary antibody (50 μL) was added to each well (blocking buffer was added to the negative control wells instead). The plates were incubated overnight at 4° C. with gentle shaking.
The wash buffer was removed, diluted secondary antibody (100 μL) was added, and the cells were incubated at ambient temperature for 1 hour with gentle shaking. […]
The term IC50 denotes the concentration that gives 50% inhibition. Turning to `CN1CCc2ccc(Nc3nc(N)n(-c4ncc5c(n4)CCCCCC5)n3)cc2C1` [Compound 12, 1-(5,6,7,8,9,10-hexahydrocycloocta[d]pyrimidin-2-yl)-N^3-(2-methyl-1,2,3,4-tetrahydroisoquinolin-7-yl)-1H-1,2,4-triazole-3,5-diamine], the IC50 is over 20000 nM.
For the compound `Nc1nc(Nc2ccc(OCCN3CCCC3)cc2)nn1-c1ccc2c(n1)CCCCCC2` [Compound 22, 1-(5,6,7,8,9,10-hexahydrocycloocta[b]pyridin-2-yl)-N^3-(4-(2-(pyrrolidin-1-yl)ethoxy)phenyl)-1H-1,2,4-triazole-3,5-diamine], the IC50 is under 1000 nM.
With `CN1CCN(c2ccc(Nc3nc(N)n(-c4ncnc5c4CCCCCC5)n3)cc2)CC1` [Compound 21, 1-(5,6,7,8,9,10-hexahydrocycloocta[d]pyrimidin-4-yl)-N^3-(4-(4-methylpiperazin-1-yl)phenyl)-1H-1,2,4-triazole-3,5-diamine] the figure was under 1000 nM; with `Nc1nc(Nc2ccc(OCCN3CCCC3)cc2)nn1-c1ncnc2c1CCCCCC2` [Compound 20, 1-(5,6,7,8,9,10-hexahydrocycloocta[d]pyrimidin-4-yl)-N^3-(4-(2-(pyrrolidin-1-yl)ethoxy)phenyl)-1H-1,2,4-triazole-3,5-diamine], under 1000 nM; with `Cc1csc2c(-n3nc(Nc4ccc5c(c4)CCCN(C4CCCC4)CC5)nc3N)ncnc12` [Compound 41, N^3-(3-cyclopentyl-1,2,3,4,5,6-hexahydrobenzo[d]azocin-8-yl)-1-(7-methylthieno[3,2-d]pyrimidin-4-yl)-1H-1,2,4-triazole-3,5-diamine], under 1000 nM.
On to `Nc1nc(Nc2ccc(N3CCC(N4CCCC4)CC3)c(F)c2)nn1-c1cc(-c2ccccc2)c2c(n1)CCCCCC2` [Compound 45, N^3-(3-fluoro-4-(4-(pyrrolidin-1-yl)piperidin-1-yl)phenyl)-1-(4-phenyl-5,6,7,8,9,10-hexahydrocycloocta[b]-pyridin-2-yl)-1H-1,2,4-triazole-3,5-diamine], for which the IC50 was in the range of 1000 to 10000 nM.
For the compound `Nc1nc(Nc2ccc(OCCN3CCCC3)cc2)nn1-c1ncc2c(n1)CCCCCC2` [Compound 1, 1-(5,6,7,8,9,10-hexahydrocycloocta[d]pyrimidin-2-yl)-N^3-(4-(2-(pyrrolidin-1-yl)ethoxy)phenyl)-1H-1,2,4-triazole-3,5-diamine], the IC50 was under 1000 nM.
With `Nc1nc(Nc2ccc(N3CCC(N4CCOCC4)CC3)c(F)c2)nn1-c1ncc2c(n1)CCCCCC2` [Compound 25, N^3-(3-fluoro-4-(4-morpholinopiperidin-1-yl)phenyl)-1-(5,6,7,8,9,10-hexahydrocycloocta[d]pyrimidin-2-yl)-1H-1,2,4-triazole-3,5-diamine] the figure was 1000 to 10000 nM; with `CN1CCN(c2ccc(Nc3nc(N)n(-c4ccc5c(n4)CCCCCC5)n3)cc2)CC1` [Compound 23, 1-(5,6,7,8,9,10-hexahydrocycloocta[b]pyridin-2-yl)-N^3-(4-(4-methylpiperazin-1-yl)phenyl)-1H-1,2,4-triazole-3,5-diamine], under 1000 nM; with `Nc1nc(Nc2ccc(N3CCC(N4CCCC4)CC3)c(F)c2)nn1-c1cc2c(nn1)CCCCCC2` [Compound 17, N^3-(3-fluoro-4-(4-(pyrrolidin-1-yl)piperidin-1-yl)phenyl)-1-(5,6,7,8,9,10-hexahydrocycloocta[c]pyridazin-3-yl)-1H-1,2,4-triazole-3,5-diamine], under 1000 nM.
With `Nc1nc(Nc2ccc3c(c2)CCN(C2CCCC2)CCC3)nn1-c1nc2ccccc2s1` [Compound 33, 1-(benzo[d]thiazol-2-yl)-N^3-(3-cyclopentyl-1,2,3,4,5,6-hexahydrobenzo[d]azocin-9-yl)-1H-1,2,4-triazole-3,5-diamine] the figure was under 1000 nM; with `Nc1nc(Nc2ccc3c(c2)CCCN(C2CCCC2)CC3)nn1-c1nc2ccccc2s1` [Compound 32, 1-(benzo[d]thiazol-2-yl)-N^3-(3-cyclopentyl-1,2,3,4,5,6-hexahydrobenzo[d]azocin-8-yl)-1H-1,2,4-triazole-3,5-diamine], 1000 to 10000 nM.

(Values after patent US8809347B2, “Bicyclic aryl and bicyclic heteroaryl substituted triazoles useful as AXL inhibitors” (Rigel Pharmaceuticals, Inc., priority 2006, dated 2014).)
